Data: ChEMBL document CHEMBL4507302, “Data for DCP probe TP-020” (2021)

Experiments:
Details in all cases: Compound concentration 1000.0 nM
[1] = system: Tyrosine-protein kinase ABL1 (Homo sapiens), P00519 [M351T]
[2] = molecular target: Serine/threonine-protein kinase BRSK1 (Homo sapiens) (UniProt Q8TDC3)
[3] = molecular target: Calcium/calmodulin-dependent protein kinase type 1D (Homo sapiens) (UniProt Q8IU85)
[4] = molecular target: Calcium/calmodulin-dependent protein kinase type 1G (Homo sapiens) (UniProt Q96NX5)
[5] = molecular target: Cyclin-dependent kinase 11A (Homo sapiens) (UniProt Q9UQ88)
[6] = molecular target: Cyclin-dependent kinase-like 5 (Homo sapiens) (UniProt O76039)
[7] = molecular target: Dual specificity protein kinase CLK2 (Homo sapiens) (UniProt P49760)
[8] = molecular target: Death-associated protein kinase 3 (Homo sapiens) (UniProt O43293)
Chain of Death-associated protein kinase 3 (Homo sapiens) (O43293 whole entry, looked up): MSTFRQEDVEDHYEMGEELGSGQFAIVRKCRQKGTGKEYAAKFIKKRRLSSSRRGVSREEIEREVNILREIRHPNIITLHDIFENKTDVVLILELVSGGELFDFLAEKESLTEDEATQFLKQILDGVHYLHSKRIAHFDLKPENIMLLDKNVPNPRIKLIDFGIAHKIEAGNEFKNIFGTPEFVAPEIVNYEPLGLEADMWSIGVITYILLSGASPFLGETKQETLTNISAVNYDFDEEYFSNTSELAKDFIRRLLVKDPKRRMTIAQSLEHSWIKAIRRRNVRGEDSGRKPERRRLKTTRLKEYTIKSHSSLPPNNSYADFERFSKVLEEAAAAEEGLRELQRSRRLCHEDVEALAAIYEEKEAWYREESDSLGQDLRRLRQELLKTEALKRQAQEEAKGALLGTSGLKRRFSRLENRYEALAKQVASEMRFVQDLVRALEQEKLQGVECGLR

[9] = molecular target: Serine/threonine-protein kinase 17B (Homo sapiens) (UniProt O94768)
[10] = molecular target: Ephrin type-B receptor 6 (Homo sapiens) (UniProt O15197)
[11] = molecular target: Tyrosine-protein kinase Fes/Fps (Homo sapiens) (UniProt P07332)
Chain of Tyrosine-protein kinase Fes/Fps (Homo sapiens) (P07332 whole entry): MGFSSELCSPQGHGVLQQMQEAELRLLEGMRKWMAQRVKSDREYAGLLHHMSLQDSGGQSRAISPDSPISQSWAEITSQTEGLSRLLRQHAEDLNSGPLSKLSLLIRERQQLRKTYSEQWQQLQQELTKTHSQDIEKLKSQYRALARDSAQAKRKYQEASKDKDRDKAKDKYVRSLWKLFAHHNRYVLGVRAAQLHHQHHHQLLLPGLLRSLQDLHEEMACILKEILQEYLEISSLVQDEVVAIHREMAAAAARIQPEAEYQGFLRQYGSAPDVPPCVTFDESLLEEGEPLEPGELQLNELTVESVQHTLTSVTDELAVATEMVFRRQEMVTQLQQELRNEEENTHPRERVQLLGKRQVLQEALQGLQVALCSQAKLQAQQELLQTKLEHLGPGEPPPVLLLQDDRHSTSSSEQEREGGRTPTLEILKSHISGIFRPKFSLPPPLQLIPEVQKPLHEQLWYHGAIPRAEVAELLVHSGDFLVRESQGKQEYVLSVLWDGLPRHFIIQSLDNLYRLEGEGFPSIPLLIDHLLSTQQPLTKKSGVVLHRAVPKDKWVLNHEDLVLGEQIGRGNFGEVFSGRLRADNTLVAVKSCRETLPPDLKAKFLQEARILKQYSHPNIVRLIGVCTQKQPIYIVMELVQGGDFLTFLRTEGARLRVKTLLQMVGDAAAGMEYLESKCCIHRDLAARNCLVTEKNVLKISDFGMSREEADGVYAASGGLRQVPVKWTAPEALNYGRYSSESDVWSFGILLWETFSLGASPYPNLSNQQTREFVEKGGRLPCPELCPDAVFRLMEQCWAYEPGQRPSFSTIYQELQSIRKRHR

[12] = system: Receptor-type tyrosine-protein kinase FLT3 (Homo sapiens), P36888 [D835H]
[13] = system: Receptor-type tyrosine-protein kinase FLT3 (Homo sapiens), P36888 [UNDEFINED MUTATION]
[14] = system: Receptor-type tyrosine-protein kinase FLT3 (Homo sapiens), P36888 [K663Q]
[15] = system: Mast/stem cell growth factor receptor Kit (Homo sapiens), P10721 [A829P]
[16] = system: Mast/stem cell growth factor receptor Kit (Homo sapiens), P10721 [L576P]
[17] = molecular target: Serine/threonine-protein kinase 10 (Homo sapiens) (UniProt O94804)
[18] = molecular target: Leukocyte tyrosine kinase receptor (Homo sapiens) (UniProt P29376)
[19] = molecular target: Mitogen-activated protein kinase kinase kinase kinase 5 (Homo sapiens) (UniProt Q9Y4K4)
Chain of Mitogen-activated protein kinase kinase kinase kinase 5 (Homo sapiens) (Q9Y4K4 whole entry, looked up): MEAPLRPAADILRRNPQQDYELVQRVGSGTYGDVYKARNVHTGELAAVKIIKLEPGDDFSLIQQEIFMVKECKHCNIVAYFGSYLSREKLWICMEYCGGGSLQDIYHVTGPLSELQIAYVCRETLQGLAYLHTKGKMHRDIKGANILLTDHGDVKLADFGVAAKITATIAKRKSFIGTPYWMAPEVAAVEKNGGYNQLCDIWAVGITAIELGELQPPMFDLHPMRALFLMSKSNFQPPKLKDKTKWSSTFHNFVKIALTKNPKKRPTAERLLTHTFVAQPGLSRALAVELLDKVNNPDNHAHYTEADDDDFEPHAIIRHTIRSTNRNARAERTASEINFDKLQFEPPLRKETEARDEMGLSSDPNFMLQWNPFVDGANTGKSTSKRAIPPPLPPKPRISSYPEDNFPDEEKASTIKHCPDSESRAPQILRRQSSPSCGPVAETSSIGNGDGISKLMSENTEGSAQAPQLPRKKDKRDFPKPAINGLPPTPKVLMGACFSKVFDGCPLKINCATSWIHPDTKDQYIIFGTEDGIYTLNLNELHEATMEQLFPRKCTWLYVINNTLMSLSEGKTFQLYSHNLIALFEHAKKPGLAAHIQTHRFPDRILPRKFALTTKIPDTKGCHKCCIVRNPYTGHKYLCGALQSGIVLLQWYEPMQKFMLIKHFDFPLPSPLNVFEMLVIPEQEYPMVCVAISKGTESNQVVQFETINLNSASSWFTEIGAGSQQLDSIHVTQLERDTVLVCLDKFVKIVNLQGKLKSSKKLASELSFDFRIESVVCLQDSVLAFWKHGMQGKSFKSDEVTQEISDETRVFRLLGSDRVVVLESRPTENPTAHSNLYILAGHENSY

[20] = molecular target: Dual specificity mitogen-activated protein kinase kinase 4 (Homo sapiens) (UniProt P45985)
[21] = molecular target: Dual specificity mitogen-activated protein kinase kinase 5 (Homo sapiens) (UniProt Q13163)
[22] = molecular target: Maternal embryonic leucine zipper kinase (Homo sapiens) (UniProt Q14680)
[23] = molecular target: Hepatocyte growth factor receptor (Homo sapiens) (UniProt P08581)
[24] = molecular target: Serine/threonine-protein kinase MRCK alpha (Homo sapiens) (UniProt Q5VT25)
[25] = molecular target: Serine/threonine-protein kinase 38-like (Homo sapiens) (UniProt Q9Y2H1)
[26] = molecular target: Serine/threonine-protein kinase Nek5 (Homo sapiens) (UniProt Q6P3R8)
[27] = molecular target: Serine/threonine-protein kinase NIM1 (Homo sapiens) (UniProt Q8IY84)
[28] = molecular target: Serine/threonine-protein kinase PAK 2 (Homo sapiens) (UniProt Q13177)
Chain of Serine/threonine-protein kinase PAK 2 (Homo sapiens) (Q13177 whole entry): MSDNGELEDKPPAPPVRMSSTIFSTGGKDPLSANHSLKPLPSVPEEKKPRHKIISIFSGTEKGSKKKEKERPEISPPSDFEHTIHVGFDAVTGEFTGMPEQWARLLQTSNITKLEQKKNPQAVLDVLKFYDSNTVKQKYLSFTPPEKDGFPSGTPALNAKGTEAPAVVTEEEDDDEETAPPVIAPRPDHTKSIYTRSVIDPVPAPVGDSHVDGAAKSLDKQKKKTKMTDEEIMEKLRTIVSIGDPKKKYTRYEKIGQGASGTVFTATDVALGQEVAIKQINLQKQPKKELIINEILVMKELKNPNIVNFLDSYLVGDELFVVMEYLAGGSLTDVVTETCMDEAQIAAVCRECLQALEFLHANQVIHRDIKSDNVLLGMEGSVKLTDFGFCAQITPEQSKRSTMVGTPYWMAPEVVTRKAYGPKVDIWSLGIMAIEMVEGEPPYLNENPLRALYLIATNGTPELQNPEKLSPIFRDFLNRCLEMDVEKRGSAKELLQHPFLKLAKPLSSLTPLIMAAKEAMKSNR

[29] = molecular target: Cyclin-dependent kinase 16 (Homo sapiens) (UniProt Q00536)
Chain of Cyclin-dependent kinase 16 (Homo sapiens) (Q00536 whole entry): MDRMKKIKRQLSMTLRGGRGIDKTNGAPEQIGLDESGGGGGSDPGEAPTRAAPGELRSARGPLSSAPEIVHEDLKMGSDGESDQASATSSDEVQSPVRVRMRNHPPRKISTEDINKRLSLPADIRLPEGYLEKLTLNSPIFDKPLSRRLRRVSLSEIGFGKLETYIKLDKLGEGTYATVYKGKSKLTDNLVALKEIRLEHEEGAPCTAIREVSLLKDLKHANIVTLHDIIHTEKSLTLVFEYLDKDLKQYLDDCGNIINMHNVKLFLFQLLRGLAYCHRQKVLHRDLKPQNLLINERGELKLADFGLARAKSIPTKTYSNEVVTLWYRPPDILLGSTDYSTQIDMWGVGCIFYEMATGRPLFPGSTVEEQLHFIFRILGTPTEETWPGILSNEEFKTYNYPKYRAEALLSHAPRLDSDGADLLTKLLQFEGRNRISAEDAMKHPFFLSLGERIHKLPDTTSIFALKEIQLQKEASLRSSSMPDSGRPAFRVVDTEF

[30] = molecular target: Platelet-derived growth factor receptor alpha (Homo sapiens) (UniProt P16234)
[31] = molecular target: Cyclin-dependent kinase 2 homolog (Plasmodium falciparum (isolate 3D7)) (UniProt P61075)
[32] = molecular target: Phosphatidylinositol 5-phosphate 4-kinase type-2 gamma (Homo sapiens) (UniProt Q8TBX8)
[33] = molecular target: Protein kinase C delta type (Homo sapiens) (UniProt Q05655)
Chain of Protein kinase C delta type (Homo sapiens) (Q05655 whole entry, looked up): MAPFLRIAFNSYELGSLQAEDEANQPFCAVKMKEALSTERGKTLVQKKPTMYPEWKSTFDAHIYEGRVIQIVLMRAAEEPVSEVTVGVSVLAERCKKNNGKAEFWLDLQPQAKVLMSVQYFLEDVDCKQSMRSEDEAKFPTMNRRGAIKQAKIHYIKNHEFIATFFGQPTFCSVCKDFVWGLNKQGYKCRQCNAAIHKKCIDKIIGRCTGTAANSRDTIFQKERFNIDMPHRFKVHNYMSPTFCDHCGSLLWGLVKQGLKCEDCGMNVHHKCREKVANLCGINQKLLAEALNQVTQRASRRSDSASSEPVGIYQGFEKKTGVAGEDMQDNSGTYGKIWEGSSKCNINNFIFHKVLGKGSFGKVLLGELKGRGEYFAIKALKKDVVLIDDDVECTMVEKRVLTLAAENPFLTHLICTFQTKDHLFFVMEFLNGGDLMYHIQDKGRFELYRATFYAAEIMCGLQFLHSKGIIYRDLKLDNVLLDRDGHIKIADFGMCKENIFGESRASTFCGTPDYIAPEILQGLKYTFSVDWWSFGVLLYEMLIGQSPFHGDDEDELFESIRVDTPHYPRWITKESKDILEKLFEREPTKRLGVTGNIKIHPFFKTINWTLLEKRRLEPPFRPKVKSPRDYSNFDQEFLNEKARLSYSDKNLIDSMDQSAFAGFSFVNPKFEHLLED

[34] = molecular target: Protein kinase C epsilon type (Homo sapiens) (UniProt Q02156)
[35] = molecular target: Interferon-induced, double-stranded RNA-activated protein kinase (Homo sapiens) (UniProt P19525)
[36] = system: Proto-oncogene tyrosine-protein kinase receptor Ret (Homo sapiens), P07949 [V804L]
[37] = molecular target: Serine/threonine-protein kinase RIO2 (Homo sapiens) (UniProt Q9BVS4)
[38] = molecular target: Serine/threonine-protein kinase RIO3 (Homo sapiens) (UniProt O14730)
[39] = molecular target: Ribosomal protein S6 kinase alpha-4 (Homo sapiens) (UniProt O75676)
[40] = molecular target: Ribosomal protein S6 kinase alpha-3 (Homo sapiens) (UniProt P51812)
[41] = molecular target: Ribosomal protein S6 kinase alpha-6 (Homo sapiens) (UniProt Q9UK32)
[42] = molecular target: SNF-related serine/threonine-protein kinase (Homo sapiens) (UniProt Q9NRH2)
[43] = molecular target: Tyrosine-protein kinase Srms (Homo sapiens) (UniProt Q9H3Y6)
Chain of Tyrosine-protein kinase Srms (Homo sapiens) (Q9H3Y6 whole entry): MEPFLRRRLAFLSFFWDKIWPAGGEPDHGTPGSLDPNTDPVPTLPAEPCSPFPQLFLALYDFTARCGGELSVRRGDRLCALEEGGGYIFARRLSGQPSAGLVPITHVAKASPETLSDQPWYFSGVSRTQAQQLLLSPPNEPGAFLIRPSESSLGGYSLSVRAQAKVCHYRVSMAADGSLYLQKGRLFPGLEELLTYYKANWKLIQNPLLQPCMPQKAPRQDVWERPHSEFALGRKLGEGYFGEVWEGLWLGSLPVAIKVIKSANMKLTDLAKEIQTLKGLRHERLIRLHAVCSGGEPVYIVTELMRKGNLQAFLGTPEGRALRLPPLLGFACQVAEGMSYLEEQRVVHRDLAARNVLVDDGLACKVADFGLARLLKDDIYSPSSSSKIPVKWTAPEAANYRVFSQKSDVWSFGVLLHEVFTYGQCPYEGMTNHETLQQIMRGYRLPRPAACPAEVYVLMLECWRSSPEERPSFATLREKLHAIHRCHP

[44] = molecular target: Serine/threonine-protein kinase 35 (Homo sapiens) (UniProt Q8TDR2)
[45] = molecular target: Wee1-like protein kinase (Homo sapiens) (UniProt P30291)
Chain of Wee1-like protein kinase (Homo sapiens) (P30291 whole entry, looked up): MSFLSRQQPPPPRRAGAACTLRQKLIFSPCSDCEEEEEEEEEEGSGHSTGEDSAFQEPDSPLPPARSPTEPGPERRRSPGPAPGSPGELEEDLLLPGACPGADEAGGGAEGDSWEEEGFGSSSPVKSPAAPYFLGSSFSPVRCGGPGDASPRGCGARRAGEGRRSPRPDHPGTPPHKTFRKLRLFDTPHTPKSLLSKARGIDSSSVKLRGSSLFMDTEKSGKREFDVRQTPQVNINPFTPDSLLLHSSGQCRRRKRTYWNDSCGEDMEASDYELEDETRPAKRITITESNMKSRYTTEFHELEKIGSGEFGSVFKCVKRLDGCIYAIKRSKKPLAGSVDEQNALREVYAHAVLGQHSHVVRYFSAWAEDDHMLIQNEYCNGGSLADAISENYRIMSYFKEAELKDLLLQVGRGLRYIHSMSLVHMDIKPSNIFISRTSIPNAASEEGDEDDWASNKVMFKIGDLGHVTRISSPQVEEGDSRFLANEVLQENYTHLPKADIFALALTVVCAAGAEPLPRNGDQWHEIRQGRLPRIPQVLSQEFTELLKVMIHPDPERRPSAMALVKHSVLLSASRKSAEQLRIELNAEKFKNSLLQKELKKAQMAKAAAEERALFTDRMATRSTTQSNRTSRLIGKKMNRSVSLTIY

Compound Nc1cnc(N2CCc3cc(S(=O)(=O)Nc4c(F)cc(Cl)cc4F)cc(N4CCCC4=O)c32)nc1 has a residual activity [1] of 100%, a residual activity [2] of 100% and a residual activity [3] of 97%. The residual activity [4] was 100%, the residual activity [5] was 89% and the residual activity [6] was 88%. It also gave a residual activity [7] of 100%, a residual activity [8] of 83% and a residual activity [9] of 100%. The residual activity [10] was 100%, the residual activity [11] was 100% and the residual activity [12] was 100%. The residual activity [13] was 92%, the residual activity [14] was 97% and the residual activity [15] was 100%. For the same compound, the residual activity [16] was 83%, the residual activity [17] was 100% and the residual activity [18] was 100%. For the same compound, the residual activity [19] was 73%, the residual activity [20] was 100% and the residual activity [21] was 84%. For the same compound, the residual activity [22] was 90%, the residual activity [23] was 69% and the residual activity [24] was 100%. It also gave a residual activity [25] of 42%, a residual activity [26] of 100% and a residual activity [27] of 100%. The residual activity [28] was 78%, the residual activity [29] was 98% and the residual activity [30] was 89%. The residual activity [31] was 100%, the residual activity [32] was 100% and the residual activity [33] was 86%. For the same compound, the residual activity [34] was 100%, the residual activity [35] was 41% and the residual activity [36] was 99%. The residual activity [37] was 89%, the residual activity [38] was 100% and the residual activity [39] was 96%. The residual activity [40] was 100%, the residual activity [41] was 86% and the residual activity [42] was 100%. The residual activity [43] was 88%, the residual activity [44] was 100% and the residual activity [45] was 72%.

For Cn1nc(C(F)(F)F)cc1-c1cnc(N2CCc3cc(S(=O)(=O)Nc4c(F)cc(Cl)cc4F)cc(N4CCCC4=O)c32)nc1 [TP-020], the residual activity [1] was 92%, the residual activity [2] was 100% and the residual activity [3] was 99%. It also gave a residual activity [4] of 100%, a residual activity [5] of 100% and a residual activity [6] of 91%. For the same compound, the residual activity [7] was 86%, the residual activity [8] was 97% and the residual activity [9] was 100%. It also gave a residual activity [10] of 82%, a residual activity [11] of 100% and a residual activity [12] of 100%. The residual activity [13] was 96%, the residual activity [14] was 100% and the residual activity [15] was 80%. It also gave a residual activity [16] of 93%, a residual activity [17] of 94% and a residual activity [18] of 94%. For the same compound, the residual activity [19] was 88%, the residual activity [20] was 88% and the residual activity [21] was 83%. For the same compound, the residual activity [22] was 100%, the residual activity [23] was 100% and the residual activity [24] was 100%. The residual activity [25] was 88%, the residual activity [26] was 86% and the residual activity [27] was 80%. For the same compound, the residual activity [28] was 100%, the residual activity [29] was 77% and the residual activity [30] was 88%. The residual activity [31] was 73%, the residual activity [32] was 66% and the residual activity [33] was 95%. The residual activity [34] was 96%, the residual activity [35] was 100% and the residual activity [36] was 100%. The residual activity [37] was 89%, the residual activity [38] was 100% and the residual activity [39] was 85%. The residual activity [40] was 99%, the residual activity [41] was 85% and the residual activity [42] was 87%. It also gave a residual activity [43] of 100%, a residual activity [44] of 100% and a residual activity [45] of 88%.
